Laboratory results reported in US9365562B2, “1,3 substituted azetidine PDE10 inhibitors” (Merck Sharp & Dohme Corp., priority 2011, dated 2016).

Target: human PDE10A2 (Homo sapiens (Human), UniProt Q9Y233)
Assay: PDE10 fluorescence polarization (IMAP FP) inhibition assay
Assay type: biochemical
Settings: apparent inhibition constant, FAM-labeled cAMP substrate 50 nM, room temperature
Summary of the method: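 Cytoplasmic lysate of AD293 cells transiently expressing human PDE10A2, enzyme preincubated 60 min at room temperature with compounds (1% DMSO), then 50 nM FAM-cAMP added for 60 min. Buffer 10 mM Tris HCl pH 7.2, 10 mM MgCl2, 1 mM DTT; IMAP binding reagent stop, FP read after ≥1 h.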

Chain of human PDE10A2 (Q9Y233 267-1055): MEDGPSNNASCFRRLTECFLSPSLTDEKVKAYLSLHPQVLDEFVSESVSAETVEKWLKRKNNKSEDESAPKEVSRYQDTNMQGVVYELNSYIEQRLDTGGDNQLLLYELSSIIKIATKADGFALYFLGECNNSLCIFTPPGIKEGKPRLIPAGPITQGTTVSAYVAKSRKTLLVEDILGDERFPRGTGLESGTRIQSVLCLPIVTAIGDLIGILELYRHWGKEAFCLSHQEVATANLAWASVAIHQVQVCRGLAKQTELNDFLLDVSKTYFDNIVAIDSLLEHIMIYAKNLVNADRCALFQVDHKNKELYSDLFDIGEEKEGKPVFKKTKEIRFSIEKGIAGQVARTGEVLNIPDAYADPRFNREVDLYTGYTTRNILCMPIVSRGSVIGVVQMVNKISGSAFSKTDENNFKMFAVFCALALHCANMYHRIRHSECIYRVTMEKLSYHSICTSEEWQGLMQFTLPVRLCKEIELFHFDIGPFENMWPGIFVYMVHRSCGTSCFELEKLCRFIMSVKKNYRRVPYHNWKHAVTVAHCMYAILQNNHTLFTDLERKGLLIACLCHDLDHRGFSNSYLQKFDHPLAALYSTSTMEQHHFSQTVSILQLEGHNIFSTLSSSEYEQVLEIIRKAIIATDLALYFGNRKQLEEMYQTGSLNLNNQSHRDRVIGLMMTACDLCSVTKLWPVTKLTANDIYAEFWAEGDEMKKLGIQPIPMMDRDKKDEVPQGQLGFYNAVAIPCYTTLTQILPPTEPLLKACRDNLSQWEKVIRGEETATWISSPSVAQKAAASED

Ki	Compound
2.5 nM	COCc1nc(C)nn1-c1cc(N2CC(c3nc4ccccc4n3C)C2)nc(C2CC2)n1 [Example 65, 2-(1-(2-cyclopropyl-6-(5-(methoxymethyl)-3-methyl-1H-1,2,4-triazol-1-yl)pyrimidin-4-yl)azetidin-3-yl)-1-methyl-1H-benzo[d]imidazole]
0.94 nM	COCc1nc(C)nn1-c1cc(N2CC(c3nc4ccccc4n3C)C2)nc(C(F)(F)F)n1 [Example 66, 2-(1-(6-(5-(methoxymethyl)-3-methyl-1H-1,2,4-triazol-1-yl)-2-(trifluoromethyl)pyrimidin-4-yl)azetidin-3-yl)-1-methyl-1H-benzo[d]imidazole]
0.28 nM	CCc1nc(C)nn1-c1cc(N2CC(c3nc4ccccc4n3C)C2)nc(C(F)(F)F)n1 [Example 67, 2-(1-(6-(5-ethyl-3-methyl-1H-1,2,4-triazol-1-yl)-2-(trifluoromethyl)pyrimidin-4-yl)azetidin-3-yl)-1-methyl-1H-benzo[d]imidazole]
1.4 nM	Cc1nc(C2CC2)n(-c2cc(N3CC(c4nc5ccccc5n4C)C3)nc(C(F)(F)F)n2)n1 [Example 68, 2-(1-(6-(5-cyclopropyl-3-methyl-1H-1,2,4-triazol-1-yl)-2-(trifluoromethyl)pyrimidin-4-yl)azetidin-3-yl)-1-methyl-1H-benzo[d]imidazole]
1.8 nM	Cc1nc(C2CCOCC2)n(-c2cc(N3CC(c4nc5ccccc5n4C)C3)nc(C(F)(F)F)n2)n1 [Example 69, 1-methyl-2-(1-(6-(3-methyl-5-(tetrahydro-2H-pyran-4-yl)-1H-1,2,4-triazol-1-yl)-2-(trifluoromethyl)pyrimidin-4-yl)azetidin-3-yl)-1H-benzo[d]imidazole]
0.38 nM	Cc1nc(C)n(-c2cc(N3CC(c4nc5ccccc5n4C)C3)nc(OC(C)C)n2)n1 [Example 70, 2-{1-[6-(3,5-dimethyl-1H-1,2,4-triazol-1-yl)-2-isopropoxypyimidin-4-yl]azetidin-3-yl}-1-methyl-1H-benzimidazole]
0.4 nM	Cc1nc(C)n(-c2cc(N3CC(c4nc5ccccc5n4C)C3)nc(OCc3ccno3)n2)n1 [Example 71, 5-(((4-(3,5-dimethyl-1H-1,2,4-triazol-1-yl)-6-(3-(1-methyl-1H-benzo[d]imidazol-2-yl)azetidin-1-yl)pyrimidin-2-yl)oxy)methyl)isoxazole]
0.28 nM	Cc1nc(C)n(-c2cc(N3CC(c4nc5ccccc5n4C)C3)nc(OCc3nccs3)n2)n1 [Example 72, 2-(((4-(3,5-dimethyl-1H-1,2,4-triazol-1-yl)-6-(3-(1-methyl-1H-benzo[d]imidazol-2-yl)azetidin-1-yl)pyrimidin-2-yl)oxy)methyl)thiazole]
0.13 nM	Cc1nc(C)n(-c2cc(N3CC(c4nc5ccccc5n4C)C3)nc(OCc3ccnn3C)n2)n1 [Example 73, 2-(1-(6-(3,5-dimethyl-1H-1,2,4-triazol-1-yl)-2-((1-methyl-1H-pyrazol-5-yl)methoxy)pyrimidin-4-yl)azetidin-3-yl)-1-methyl-1H-benzo[d]imidazole]
0.49 nM	Cc1nc(C)n(-c2cc(N3CC(c4nc5ccccc5n4C)C3)nc(OCc3ccon3)n2)n1 [Example 74, 3-(((4-(3,5-dimethyl-1H-1,2,4-triazol-1-yl)-6-(3-(1-methyl-1H-benzo[d]imidazol-2-yl)azetidin-1-yl)pyrimidin-2-yl)oxy)methyl)isoxazole]
0.7 nM	Cc1noc(COc2nc(N3CC(c4nc5ccccc5n4C)C3)cc(-n3nc(C)nc3C)n2)n1 [Example 75, 5-(((4-(3,5-dimethyl-1H-1,2,4-triazol-1-yl)-6-(3-(1-methyl-1H-benzo[d]imidazol-2-yl)azetidin-1-yl)pyrimidin-2-yl)oxy)methyl)-3-methyl-1,2,4-oxadiazole]
0.61 nM	Cc1nc(C)n(-c2cc(N3CC(c4nc5ccccc5n4C)C3)nc(-n3cccn3)n2)n1 [Example 76, 2-(1-(6-(3,5-dimethyl-1H-1,2,4-triazol-1-yl)-2-(1H-pyrazol-1-yl)pyrimidin-4-yl)azetidin-3-yl)-1-methyl-1H-benzo[d]imidazole]
0.26 nM	Cc1nc(C)n(-c2cc(N3CC(c4nc5ccccc5n4C)C3)nc(-n3ccnc3C)n2)n1 [Example 77, 2-(1-(6-(3,5-dimethyl-1H-1,2,4-triazol-1-yl)-2-(2-methyl-1H-imidazol-1-yl)pyrimidin-4-yl)azetidin-3-yl)-1-methyl-1H-benzo[d]imidazole]
0.29 nM	Cc1nc(C)n(-c2cc(N3CC(c4nc5ccccc5n4C)C3)nc(N3CCCC3)n2)n1 [Example 78, 2-{1-[6-(3,5-dimethyl-1H-1,2,4-triazol-1-yl)-2-(pyrrolidin-1-yl)pyrimidin-4-yl]azetidin-3-yl}-1-methyl-1H-benzimidazole]
0.28 nM	Cc1nc(C)n(-c2cc(N3CC(c4nc5ccccc5n4C)C3)nc(C#N)n2)n1 [Example 79, 4-(3,5-dimethyl-1H-1,2,4-triazol-1-yl)-6-[3-(1-methyl-1H-benzimidazol-2-yl)azetidin-1-yl]pyrimidine-2-carbonitrile]
> 100 nM	Cc1nc(-c2cccnc2C)cc(N2CC(c3nc4ccccc4n3C)C2)n1 [Example 80, 1-Methyl-2-(1-(2-methyl-6-(2-methylpyridin-3-yl)pyrimidin-4-yl)azetidin-3-yl)-1H-benzo[d]imidazole]
76 nM	Cc1nc(-c2cccnc2)cc(N2CC(c3nc4ccccc4n3C)C2)n1 [Example 81, 1-methyl-2-(1-(2-methyl-6-(pyridin-3-yl)pyrimidin-4-yl)azetidin-3-yl)-1H-benzo[d]imidazole]

Ki	Compound
27 nM	COc1ncccc1-c1cc(N2CC(c3nc4ccccc4n3C)C2)nc(C)n1 [Example 82, 2-(1-(6-(2-methoxypyridin-3-yl)-2-methylpyrimidin-4-yl)azetidin-3-yl)-1-methyl-1H-benzo[d]imidazole]
75 nM	CC(=O)Nc1ncccc1-c1cc(N2CC(c3nc4ccccc4n3C)C2)nc(C)n1 [Example 83, N-(3-(2-methyl-6-(3-(1-methyl-1H-benzo[d]imidazol-2-yl)azetidin-1-yl)pyrimidin-4-yl)pyridin-2-yl)acetamide]
27 nM	COc1nc(C)ccc1-c1cc(N2CC(c3nc4ccccc4n3C)C2)nc(C)n1 [Example 84, 2-(1-(6-(2-methoxy-6-methylpyridin-3-yl)-2-methylpyrimidin-4-yl)azetidin-3-yl)-1-methyl-1H-benzo[d]imidazole]
8 nM	Cc1ccc(-c2cc(N3CC(c4nc5ccccc5n4C)C3)nc(C)n2)c(F)n1 [Example 85, 2-(1-(6-(2-fluoro-6-methylpyridin-3-yl)-2-methylpyrimidin-4-yl)azetidin-3-yl)-1-methyl-1H-benzo[d]imidazole]
46 nM	Cc1nc(-c2ccncc2)cc(N2CC(c3nc4ccccc4n3C)C2)n1 [Example 86, 1-methyl-2-(1-(2-methyl-6-(pyridin-4-yl)pyrimidin-4-yl)azetidin-3-yl)-1H-benzo[d]imidazole]
1.3 nM	Cc1nc(-c2cccc(C(F)(F)F)n2)cc(N2CC(c3nc4ccccc4n3C)C2)n1 [Example 87, 1-methyl-2-(1-(2-methyl-6-(6-(trifluoromethyl)pyridin-2-yl)pyrimidin-4-yl)azetidin-3-yl)-1H-benzo[d]imidazole]
63 nM	Cc1nc(-c2ccccc2)cc(N2CC(c3nc4ccccc4n3C)C2)n1 [Example 88, 1-methyl-2-(1-(2-methyl-6-phenylpyrimidin-4-yl)azetidin-3-yl)-1H-benzo[d]imidazole]
63 nM	COc1ccccc1-c1cc(N2CC(c3nc4ccccc4n3C)C2)nc(C)n1 [Example 89, 2-(1-(6-(2-methoxyphenyl)-2-methylpyrimidin-4-yl)azetidin-3-yl)-1-methyl-1H-benzo[d]imidazole]
15 nM	Cc1nc(-c2ccccc2F)cc(N2CC(c3nc4ccccc4n3C)C2)n1 [Example 90, 2-(1-(6-(2-fluorophenyl)-2-methylpyrimidin-4-yl)azetidin-3-yl)-1-methyl-1H-benzo[d]imidazole]
22 nM	Cc1nc(-c2ccccc2OC(F)F)cc(N2CC(c3nc4ccccc4n3C)C2)n1 [Example 91, 2-(1-(6-(2-(difluoromethoxy)phenyl)-2-methylpyrimidin-4-yl)azetidin-3-yl)-1-methyl-1H-benzo[d]imidazole]
30 nM	Cc1nc(-c2ccccc2O)cc(N2CC(c3nc4ccccc4n3C)C2)n1 [Example 92, 2-(2-methyl-6-(3-(1-methyl-1H-benzo[d]imidazol-2-yl)azetidin-1-yl)pyrimidin-4-yl)phenol]
19 nM	Cc1nc(-c2ccccc2C(=O)O)cc(N2CC(c3nc4ccccc4n3C)C2)n1 [Example 93, 2-(2-methyl-6-(3-(1-methyl-1H-benzo[d]imidazol-2-yl)azetidin-1-yl)pyrimidin-4-yl)benzoic acid]
1 nM	Cc1ccc(-c2cc(N3CC(c4nc5ccccc5n4C)C3)nc(C)n2)nc1 [Example 94, 1-methyl-2-(1-(2-methyl-6-(5-methylpyridin-2-yl)pyrimidin-4-yl)azetidin-3-yl)-1H-benzo[d]imidazole]
1.8 nM	Cc1nc(-c2ccccn2)cc(N2CC(c3nc4ccccc4n3C)C2)n1 [Example 95, 1-methyl-2-(1-(2-methyl-6-(pyridin-2-yl)pyrimidin-4-yl)azetidin-3-yl)-1H-benzo[d]imidazole]
1.3 nM	COc1nc(-c2ccc(C)cn2)cc(N2CC(c3nc4ccccc4n3C)C2)n1 [Example 96, 2-(1-(2-methoxy-6-(5-methylpyridin-2-yl)pyrimidin-4-yl)azetidin-3-yl)-1-methyl-1H-benzo[d]imidazole]
0.9 nM	Cc1ccc(-c2cc(N3CC(c4nc5ccccc5n4C)C3)nc(C(F)(F)F)n2)nc1 [Example 97, 1-methyl-2-(1-(6-(5-methylpyridin-2-yl)-2-(trifluoromethyl)pyrimidin-4-yl)azetidin-3-yl)-1H-benzo[d]imidazole]
5.5 nM	Cc1cccc(-c2cc(N3CC(c4nc5ccccc5n4C)C3)nc(C)n2)n1 [Example 98, 1-methyl-2-(1-(2-methyl-6-(6-methylpyridin-2-yl)pyrimidin-4-yl)azetidin-3-yl)-1H-benzo[d]imidazole]
